Experimental data published in publication PMC2667487, “Cellular localization of kinin B1 receptor in the spinal cord of streptozotocin-diabetic rats with a fluorescent [N^α-Bodipy]-des-Arg^9-bradykinin” (Journal of Neuroinflammation, 2009).
Where “and” joins values, the source holds several entries; their conditions need not be identical. Equal values may be shown once. Entries after “also recorded” stand apart in the source; their conditions may differ. Blank lines part the entries; values can stand above or below the molecule they belong to. Square brackets hold non-standard residues; d marks the D form. Peptide text beside a SMILES is read from it. d2Nal = N[C@H](Cc1ccc2ccccc2c1)C(=O)O

Assays:
[1] = test system: B1R mRNA in thoracic spinal cord; assay: B1R mRNA expression, SYBR green-based quantitative RT-PCR; design: species or system rat; conditions: STZ 65 mg/kg i.p., 4 days, 18S reference, means of 3 to 6 rats
Method: (§1) Rats were used 5 days after their arrival and injected under low light with freshly prepared STZ (65 mg/kg; i.p.; Sigma-Aldrich, Oakville, ON, Canada). Age-matched controls were injected with vehicle (sterile saline 0.9%, pH. 7.0). Glucose concentrations were measured, with a commercial blood glucose-monitoring kit (Accusoft; Roche Diagnostics, Laval, Que., Canada), in blood samples obtained from the tail vein, in non-fasting animals, before STZ injection, and 4 days after treatment. Only STZ-treated rats whose blood glucose concentration was higher than 20 mM were considered as diabetic.
Four days after injection of STZ, rats were anaesthetized with CO2 inhalation and then decapitated. […] First-strand cDNA synthesized from 400 ng total RNA with random hexamer primers was used as template for each reaction with the QuantiTect Rev Transcription Kit (QIAGEN). SYBR Green-based real-time quantitative PCR using Mx3000p device for signal detection (Stratagene, La Jolla, CA, USA) was performed as described. […] For standardization and quantification, rat 18S was amplified simultaneously. […]
PCR conditions were as follows: 95°C for 15 min, followed by 46 cycles at 94°C for 15 s, 60°C for 30 s and 72°C for 30 s. […] The relative quantification of gene expression was analyzed by the 2^-ΔΔCt method.

[2] = test system: B1R binding sites in thoracic spinal cord; assay: density of specific B1R binding sites, quantitative autoradiography; design: species or system rat; conditions: STZ 65 mg/kg i.p., 4 days, 7 to 8 rats
Method: as §1
The radioligands for kinin B1R, HPP-desArg^10-Hoe140 (3-(4 hydroxyphenyl) propionyl-desArg^9-D-Arg^0 [Hyp^3, Thi^5, D-Tic^7, Oic^8]Bradykinin) and kinin B2R, HPP-Hoe140 (3-(4 hydroxyphenyl) propionyl-D-Arg^0 [Hyp^3, Thi^5, D-Tic^7, Oic^8]Bradykinin) were synthesized and kindly provided by Dr Witold Neugebauer (Dept Pharmacology, University of Sherbrooke, Sherbrooke, Que., Canada). They were iodinated by the chloramine T method. […] Autoradiograms were quantified by densitometry using an MCID™ image analysis system (Imaging Research, St. Catharines, ON, Canada). […] Specific binding was determined by subtracting values of nonspecific binding from that of total binding.

[3] = target: T1, kinin B1R (Rattus norvegicus, UniProt P97583); assay: competition curves by quantitative autoradiography, displacement of [^125I]-HPP-desArg^10-Hoe 140 (B1R); conditions: 200 pM [^125I]-HPP-desArg^10-Hoe 140, competitor 10^-10 to 10^-6 M, thoracic spinal cord sections of STZ-treated rats, 90 min, room temperature, 25 mM PIPES-NH4OH pH 7.4; means ± SEM, 4 sections per rat from 7 rats; read-out: IC50, inhibition of total B1R binding sites
T1 construct: from tissue; host or cells: rat spinal cord sections (autoradiography)
T1 sequence (P97583 1-337): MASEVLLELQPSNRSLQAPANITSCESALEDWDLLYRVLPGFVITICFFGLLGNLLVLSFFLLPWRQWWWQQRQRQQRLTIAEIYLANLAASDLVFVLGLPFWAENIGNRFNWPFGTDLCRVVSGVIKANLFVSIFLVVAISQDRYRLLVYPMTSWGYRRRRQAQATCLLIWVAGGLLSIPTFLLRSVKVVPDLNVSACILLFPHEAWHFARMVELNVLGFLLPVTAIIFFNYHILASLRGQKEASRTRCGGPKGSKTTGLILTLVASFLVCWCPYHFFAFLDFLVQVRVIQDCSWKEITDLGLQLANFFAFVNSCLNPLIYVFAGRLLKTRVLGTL
Method: (§2) They were iodinated by the chloramine T method. […] At the end of the incubation period, slides were transferred sequentially through four rinses of 4 min each in 25 mM PIPES (pH 7.4; 4°C) dipped for 15s in distilled water (4°C) to remove the excess of salts, and then air-dried. Kodak Scientific Imaging Films BIOMAXTM MR® (Amersham Pharmacia Biotech Canada) were juxtaposed onto the slides in the presence of [^125I]-microscales and exposed at room temperature for 7 days. The films were developed (GBX developer) and fixed (GBX fixer). Autoradiograms were quantified by densitometry using an MCIDTM image analysis system (Imaging Research, St. Catharines, ON, Canada). A standard curve from [^125I]-microscales was used to convert density levels into fentomoles per milligram of protein [48]. Specific binding was determined by subtracting values of nonspecific binding from that of total binding. […] Each concentration of each competitor was tested on 4 sections per rat from 7 different rats. Those sections were exposed to the film, and total binding was calculated as described above. […] All data were expressed as means ± S.E.M. obtained from n rats. Statistical significance was determined with Student's t-test for unpaired samples or a one-way analysis of variance (ANOVA) followed by post-hoc Dunnett test for multiple comparisons.

[4] = target: T2, kinin B2R (Rattus norvegicus, UniProt P25023); assay: competition curves by quantitative autoradiography, displacement of [^125I]-HPP-Hoe 140 (B2R); conditions: 200 pM [^125I]-HPP-Hoe 140, competitor 10^-10 to 10^-6 M, thoracic spinal cord sections of STZ-treated rats, 90 min, room temperature, 25 mM PIPES-NH4OH pH 7.4; means ± SEM, 4 sections per rat from 7 rats; read-out: IC50, displacement of B2R binding sites
T2 construct: from tissue; host or cells: rat tissue sections (spinal cord, autoradiography)
T2 sequence (P25023 1-396): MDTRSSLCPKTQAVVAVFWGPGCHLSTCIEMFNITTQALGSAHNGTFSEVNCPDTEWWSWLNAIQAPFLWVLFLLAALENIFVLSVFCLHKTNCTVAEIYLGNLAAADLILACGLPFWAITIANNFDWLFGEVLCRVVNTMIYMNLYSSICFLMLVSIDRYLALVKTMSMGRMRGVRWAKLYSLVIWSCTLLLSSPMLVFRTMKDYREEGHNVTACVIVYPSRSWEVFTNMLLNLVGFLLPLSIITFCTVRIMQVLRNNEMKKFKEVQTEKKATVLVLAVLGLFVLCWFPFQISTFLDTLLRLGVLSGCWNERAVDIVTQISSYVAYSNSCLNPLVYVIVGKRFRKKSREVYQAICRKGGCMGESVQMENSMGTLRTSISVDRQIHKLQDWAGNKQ
Method: as §2

[5] = test system: B1R; conditions: cited from earlier work
Description: (§3) Importantly, the development of tactile and cold allodynia in a rat model of insulin-resistance was blocked by the B1R antagonist SSR240612 [28] and by two antioxidants (N-acetyl-L-cysteine and alpha-lipoic acid) ...

[6] = test system: rat model of insulin-resistance; conditions: cited from earlier work
Description: as §3

[7] = test system: B1R in thoracic spinal cord; assay: BdABK fluorescent labeling of B1R and its displacement, confocal microscopy; assay type: binding, rat; conditions: STZ-treated thoracic spinal cord, BdABK 50 μM co-incubated with 10^-5 M antagonist
Method: On the day of experiments, sections were thawed at room temperature for 10 min to enhance sections adhesion. They were pre-incubated for 10 min in 25 mM PIPES-NH4OH buffer (pH 7.4) to allow degradation of endogenous kinins which could occupy receptors. Sections were exposed for 90 min to 50 μM BdABK. Thereafter, slides were washed twice (1 min) in PIPES and fixed with 4% para-formaldehyde. Slides were washed three times (5 min) and then exposed to 1 M of glycine for 90 min to eliminate autofluorescence from aldehyde-fixed tissue. […] Each concentration of each competitor was tested on 4 sections per rat from 7 different rats. Those sections were exposed to the film, and total binding was calculated as described above.

SMILES: CN(N=O)C(=O)N[C@H]1C(O)O[C@H](CO)[C@@H](O)[C@@H]1O (mixture of isomers) [STZ, streptozotocin]
B1R mRNA expression increase (fold change vs control) [1]: 18 fold and 18.1 fold | B1R binding sites, fold vs control [2]: 2.7 fold

IC50 [3]: 5.3 nM
SMILES: CC1=CC(C)=[N+]2C1=Cc1ccc(CCC(=O)N[C@@H](CCCNC(=N)N)C(=O)N3CCC[C@H]3C(=O)N3CCC[C@H]3C(=O)NCC(=O)N[C@@H](Cc3ccccc3)C(=O)N[C@@H](CO)C(=O)N3CCC[C@H]3C(=O)N[C@@H](Cc3ccccc3)C(=O)O)n1[B-]2(F)F [BdABK, [N^α-Bodipy]-des-Arg^9-BK]

IC50 [4]: 1.33 ± 0.1 nM
SMILES: NC(N)=NCCC[C@@H](N)C(=O)N[C@@H](CCCN=C(N)N)C(=O)N1CCC[C@H]1C(=O)N1C[C@H](O)C[C@H]1C(=O)NCC(=O)N[C@@H](Cc1cccs1)C(=O)N[C@@H](CO)C(=O)N1Cc2ccccc2C[C@@H]1C(=O)N1[C@H](C(=O)N[C@@H](CCCN=C(N)N)C(=O)O)C[C@@H]2CCCC[C@@H]21 [Hoe 140]

SMILES: CC(=O)N[C@@H](CS)C(=O)O [N-acetyl-L-cysteine]
induction of B1R, antioxidants [5]: prevent the induction of B1R | development of tactile and cold allodynia, antioxidants [6]: blocked

IC50 [3]: 4.3 nM
SMILES: CC[C@H](C)[C@H](NC(=O)[C@@H](Cc1ccc2ccccc2c1)NC(=O)[C@H](CO)NC(=O)[C@H](Cc1ccccc1)NC(=O)CNC(=O)[C@@H]1CCCN1C(=O)[C@@H]1CCCN1C(=O)[C@H](CCCN=C(N)N)NC(=O)[C@H](CCCCN)NC(C)=O)C(=O)O [R-715, AcLys [D-βNal^7, Ile^8]des-Arg^9-BK] (Ac-KRPPGFS[d2Nal]I-OH)

SMILES: CCN(C(=O)[C@@H](Cc1ccc(CN2[C@H](C)CCC[C@@H]2C)cc1)NC(=O)C[C@@H](NS(=O)(=O)c1ccc2cc(OC)ccc2c1)c1ccc2c(c1)OCO2)C(C)C.Cl [SSR240612]
displacement of BdABK labeling by B1R antagonist [7]: absence of BdABK labeling; also recorded: B1R labeling was absent; also recorded: elimination of B1R labeling | development of tactile and cold allodynia [6]: blocked

SMILES: O=C(O)CCCCC1CCSS1 (stereo not drawn) [alpha-lipoic acid]
induction of B1R, antioxidants [5]: prevent the induction of B1R | development of tactile and cold allodynia, antioxidants [6]: blocked

IC50 [3]: 19 nM
SMILES: N=C(N)NCCC[C@H](N)C(=O)N1CCC[C@H]1C(=O)N1CCC[C@H]1C(=O)NCC(=O)N[C@@H](Cc1ccccc1)C(=O)N[C@@H](CO)C(=O)N1CCC[C@H]1C(=O)N[C@@H](Cc1ccccc1)C(=O)O [des-Arg^9-BK]
